Assays:
[1] = Dynamic vapor sorption (DVS) hygroscopicity, with XRPD before and after; format: physicochemical; conditions: for weight gain by hygroscopicity: DVS; for crystal form before and after DVS detection (XRPD): XRPD redetermined after DVS
Method: (§1) Test conditions for the instruments used in experiments of the present disclosure: • 1. X-ray Powder Diffraction, XRPD • Instrument type: Malver Panalytical Aeris X-ray powder diffractometer • Ray: monochromatic Cu-Kα ray (λ=1.54188) • Scanning mode: θ/2θ, Scanning range (2θ range): 3.5-50° • Voltage: 40 kV, Electric current: 15 mA • 2. Differential Scanning calorimetry, DSC • Instrument type: TA DSC250 • Purge gas: Nitrogen; Nitrogen purge rate: 50 mL/min • Heating rate: 10° C./min • Temperature range: 25° C.-300° C. • 3. Thermogravimetric Analysis, TGA • Instrument type: TA TGA550 • Purge gas: Nitrogen; Nitrogen purge rate: 20 ml/min • Heating rate: 10° C./min • Temperature range: 30° C.-350° C. 4. Dynamic vapor sorption (DVS) • Using SMS Intrinsic PLUS, the detection is performed at 25° C., with humidity change of 50%-0%-90% with a step size of 10%, in which the criteria for judging is that the mass change dM/dT for each gradient is less than 0.002%, TMAX is 360 min, and two cycles are performed. • 5. High performance liquid chromatography (HPLC) described in the stability test of the crystal forms of the present disclosure is determined on Agilent 1260 Infinity II.

[2] = Stability (influence factor) test of free base crystal form E, HPLC and XRPD; format: physicochemical; conditions: for related substances (impurities) by HPLC versus initial: different days
Method: as §1
In the content detection method by the high performance liquid chromatography described in the present disclosure, HPLC conditions are as follows: chromatographic column, Agilent Eclipse Plus C18 4.6 mm*150 mm, 3.5 μm; mobile phase, A-10 mmol/L solution of sodium dihydrogen phosphate (pH 8.0), and B-ACN; flow rate, 1.0 ml/min; wavelength, 210 nm.
In the related substances detection method by the high performance liquid chromatography described in Example 8 of the present disclosure, HPLC conditions are as follows: chromatographic column, Agilent Eclipse Plus C18 4.6 mm*150 mm, 3.5 μm; mobile phase, A-10 mmol/L solution of ammonium acetate, and B-ACN; flow rate, 1.0 ml/min; wavelength, 210 nm.
It is determined whether temperature and humidity have an influence on the stability of free base crystal form E of the compound of formula I.
The free base crystal form E was placed in a stabilizing chamber […] and subjected to influence factor tests using a series of temperature and humidity combinations. After being placed for different days under light and various temperature and humidity conditions, the samples were taken out. The related substances (impurities) were detected by high performance liquid chromatography.
The samples taken out on the last day under light and various temperature and humidity conditions were subjected to XRPD detection, showing that the free base crystal form E had no change and had good stability.

[3] = accelerated experimental conditions (80% RH)
[4] = normal storage conditions (25° C., 60% RH)

| SMILES | weight gain by hygroscopicity [1, 3] | crystal form before and after DVS detection (XRPD) [1] | weight gain by hygroscopicity ([1]; extreme conditions (90% RH)) | weight gain by hygroscopicity [1, 4] | further results |
| --- | --- | --- | --- | --- | --- |
| N#Cc1ccc2c(c1)COc1cc(C[C@@H](C#N)NC(=O)[C@@H]3CNCCCO3)c(F)cc1-2 [crystal form A] | approximately 5.39% | did not change | – | – | – |
| N#Cc1ccc2c(c1)COc1cc(C[C@@H](C#N)NC(=O)[C@@H]3CNCCCO3)c(F)cc1-2 [crystal form B] | approximately 1.60% | did not change | approximately 3.87% | approximately 0.93% | – |
| N#Cc1ccc2c(c1)COc1cc(C[C@@H](C#N)NC(=O)[C@@H]3CNCCCO3)c(F)cc1-2 [crystal form C] | approximately 0.89% | did not change | approximately 1.16% | approximately 0.65% | – |
| N#Cc1ccc2c(c1)COc1cc(C[C@@H](C#N)NC(=O)[C@@H]3CNCCCO3)c(F)cc1-2 [crystal form D] | approximately 0.76% | did not change | approximately 0.84% | approximately 0.64% | – |
| N#Cc1ccc2c(c1)COc1cc(C[C@@H](C#N)NC(=O)[C@@H]3CNCCCO3)c(F)cc1-2 [free base crystal form E] | – | – | – | – | Content (%) of the compound of formula I ([2]; 0 day): 97.45%; Content (%) of the compound of formula I ([2]; 0.5 ICH (light)): 96.07%; Content (%) of the compound of formula I ([2]; 1 ICH (light)): 94.52%; Content (%) of the compound of formula I ([2]; 25° C. RH 92%-1 week): 97.29%; Content (%) of the compound of formula I ([2]; 25° C. RH 92%-2 weeks): 97.5%; Content (%) of the compound of formula I ([2]; 40° C. RH 75%-1 week): 97.36%; Content (%) of the compound of formula I ([2]; 40° C. RH 75%-2 weeks): 97.51%; Content (%) of the compound of formula I ([2]; 60° C.-1 week): 97.25%; Content (%) of the compound of formula I ([2]; 60° C.-2 weeks): 97.55%; related substances (impurities) by HPLC versus initial ([2]; light conditions): impurities increased; crystal form after stability test (XRPD) ([2]; samples of the last day under light and various temperature and humidity conditions): had no change; related substances (impurities) by HPLC versus initial ([2]; various temperature and humidity conditions): no significant increase or only a slight increase |

Source: patent publication US20250353839A1, “POLYMORPH OF BENZO[C]CHROMAN COMPOUND, PREPARATION METHOD THEREFOR AND USE THEREOF” (Reistone Biopharma Company Limited, priority 2022, published 2025)
